Results published in the NIST ThermoML archive (doi:10.1021/je900757k).
Numbers after ± are expanded uncertainties.

Test: isobaric coefficient of expansion
Conditions: Liquid, DSC

CCCCCCCCC [nonane]
isobaric coefficient of expansion
Conditions	278.15 K	288.15 K	298.15 K	308.15 K	318.15 K	328.15 K	338.15 K	348.15 K
5000 kPa	0.001 ± 2.5e-05 1/K	0.00103 ± 2.5e-05 1/K	0.00105 ± 2.6e-05 1/K	0.00106 ± 2.6e-05 1/K	0.00108 ± 2.7e-05 1/K	0.0011 ± 2.7e-05 1/K	0.00113 ± 2.8e-05 1/K	0.00114 ± 2.8e-05 1/K
10000 kPa	0.000977 ± 2.4e-05 1/K	0.000997 ± 2.4e-05 1/K	0.00101 ± 2.5e-05 1/K	0.00103 ± 2.5e-05 1/K	0.00104 ± 2.6e-05 1/K	0.00106 ± 2.6e-05 1/K	0.00108 ± 2.6e-05 1/K	0.00109 ± 2.7e-05 1/K
15000 kPa	0.000954 ± 2.3e-05 1/K	0.000967 ± 2.4e-05 1/K	0.000984 ± 2.4e-05 1/K	0.000995 ± 2.4e-05 1/K	0.00101 ± 2.5e-05 1/K	0.00102 ± 2.5e-05 1/K	0.00103 ± 2.5e-05 1/K	0.00104 ± 2.5e-05 1/K
20000 kPa	0.000928 ± 2.3e-05 1/K	0.00094 ± 2.3e-05 1/K	0.000955 ± 2.3e-05 1/K	0.000962 ± 2.4e-05 1/K	0.00097 ± 2.4e-05 1/K	0.000984 ± 2.4e-05 1/K	0.000992 ± 2.4e-05 1/K	0.000998 ± 2.4e-05 1/K
25000 kPa	0.000907 ± 2.2e-05 1/K	0.000917 ± 2.2e-05 1/K	0.000927 ± 2.3e-05 1/K	0.000935 ± 2.3e-05 1/K	0.000941 ± 2.3e-05 1/K	0.000949 ± 2.3e-05 1/K	0.00096 ± 2.4e-05 1/K	0.000964 ± 2.4e-05 1/K
30000 kPa	0.000886 ± 2.2e-05 1/K	0.000898 ± 2.2e-05 1/K	0.000903 ± 2.2e-05 1/K	0.000912 ± 2.2e-05 1/K	0.000915 ± 2.2e-05 1/K	0.000921 ± 2.3e-05 1/K	0.000931 ± 2.3e-05 1/K	0.000931 ± 2.3e-05 1/K
35000 kPa	0.000868 ± 2.1e-05 1/K	0.000875 ± 2.1e-05 1/K	0.000878 ± 2.2e-05 1/K	0.000883 ± 2.2e-05 1/K	0.000889 ± 2.2e-05 1/K	0.000892 ± 2.2e-05 1/K	0.000899 ± 2.2e-05 1/K	0.0009 ± 2.2e-05 1/K
40000 kPa	0.000841 ± 2.1e-05 1/K	0.000853 ± 2.1e-05 1/K	0.000856 ± 2.1e-05 1/K	0.00086 ± 2.1e-05 1/K	0.000864 ± 2.1e-05 1/K	0.000865 ± 2.1e-05 1/K	0.000866 ± 2.1e-05 1/K	0.000869 ± 2.1e-05 1/K
45000 kPa	0.000827 ± 2e-05 1/K	0.000836 ± 2e-05 1/K	0.000839 ± 2.1e-05 1/K	0.000838 ± 2.1e-05 1/K	0.000841 ± 2.1e-05 1/K	0.000843 ± 2.1e-05 1/K	0.000846 ± 2.1e-05 1/K	0.000844 ± 2.1e-05 1/K
50000 kPa	0.000811 ± 2e-05 1/K	0.000819 ± 2e-05 1/K	0.000819 ± 2e-05 1/K	0.00082 ± 2e-05 1/K	0.000825 ± 2e-05 1/K	0.000822 ± 2e-05 1/K	0.000825 ± 2e-05 1/K	0.000823 ± 2e-05 1/K
55000 kPa	0.000803 ± 2e-05 1/K	0.000799 ± 2e-05 1/K	0.000803 ± 2e-05 1/K	0.000804 ± 2e-05 1/K	0.000806 ± 2e-05 1/K	0.000803 ± 2e-05 1/K	0.000807 ± 2e-05 1/K	0.000806 ± 2e-05 1/K

CCCCCCCCCCC [undecane]
isobaric coefficient of expansion
Conditions	278.15 K	288.15 K	298.15 K	308.15 K	318.15 K	328.15 K	338.15 K	348.15 K
5000 kPa	0.000936 ± 2.3e-05 1/K	0.000948 ± 2.3e-05 1/K	0.000965 ± 2.4e-05 1/K	0.000979 ± 2.4e-05 1/K	0.000993 ± 2.4e-05 1/K	0.00101 ± 2.5e-05 1/K	0.00102 ± 2.5e-05 1/K	0.00103 ± 2.5e-05 1/K
10000 kPa	0.000913 ± 2.2e-05 1/K	0.000924 ± 2.3e-05 1/K	0.000937 ± 2.3e-05 1/K	0.00095 ± 2.3e-05 1/K	0.00096 ± 2.4e-05 1/K	0.000971 ± 2.4e-05 1/K	0.000983 ± 2.4e-05 1/K	0.000991 ± 2.4e-05 1/K
15000 kPa	0.000893 ± 2.2e-05 1/K	0.0009 ± 2.2e-05 1/K	0.000912 ± 2.2e-05 1/K	0.000921 ± 2.3e-05 1/K	0.000933 ± 2.3e-05 1/K	0.00094 ± 2.3e-05 1/K	0.000946 ± 2.3e-05 1/K	0.000948 ± 2.3e-05 1/K
20000 kPa	0.000873 ± 2.1e-05 1/K	0.000879 ± 2.2e-05 1/K	0.00089 ± 2.2e-05 1/K	0.000897 ± 2.2e-05 1/K	0.000901 ± 2.2e-05 1/K	0.000909 ± 2.2e-05 1/K	0.000915 ± 2.2e-05 1/K	0.000917 ± 2.2e-05 1/K
25000 kPa	0.000854 ± 2.1e-05 1/K	0.000856 ± 2.1e-05 1/K	0.000865 ± 2.1e-05 1/K	0.00087 ± 2.1e-05 1/K	0.000874 ± 2.1e-05 1/K	0.000884 ± 2.2e-05 1/K	0.000888 ± 2.2e-05 1/K	0.00089 ± 2.2e-05 1/K
30000 kPa	0.000836 ± 2e-05 1/K	0.000843 ± 2.1e-05 1/K	0.000845 ± 2.1e-05 1/K	0.000848 ± 2.1e-05 1/K	0.000851 ± 2.1e-05 1/K	0.000857 ± 2.1e-05 1/K	0.00086 ± 2.1e-05 1/K	0.000859 ± 2.1e-05 1/K
35000 kPa	0.000819 ± 2e-05 1/K	0.00082 ± 2e-05 1/K	0.000825 ± 2e-05 1/K	0.000828 ± 2e-05 1/K	0.000829 ± 2e-05 1/K	0.000833 ± 2e-05 1/K	0.000834 ± 2e-05 1/K	0.000833 ± 2e-05 1/K
40000 kPa	0.000797 ± 2e-05 1/K	0.000801 ± 2e-05 1/K	0.000805 ± 2e-05 1/K	0.000806 ± 2e-05 1/K	0.000808 ± 2e-05 1/K	0.000806 ± 2e-05 1/K	0.00081 ± 2e-05 1/K	0.00081 ± 2e-05 1/K
45000 kPa	0.000785 ± 1.9e-05 1/K	0.000787 ± 1.9e-05 1/K	0.00079 ± 1.9e-05 1/K	0.000789 ± 1.9e-05 1/K	0.000787 ± 1.9e-05 1/K	0.00079 ± 1.9e-05 1/K	0.000789 ± 1.9e-05 1/K	0.000787 ± 1.9e-05 1/K
50000 kPa	0.000773 ± 1.9e-05 1/K	0.000773 ± 1.9e-05 1/K	0.000773 ± 1.9e-05 1/K	0.000774 ± 1.9e-05 1/K	0.000775 ± 1.9e-05 1/K	0.000775 ± 1.9e-05 1/K	0.000771 ± 1.9e-05 1/K	0.000769 ± 1.9e-05 1/K
55000 kPa	0.000765 ± 1.9e-05 1/K	0.000756 ± 1.9e-05 1/K	0.000759 ± 1.9e-05 1/K	0.000759 ± 1.9e-05 1/K	0.000758 ± 1.9e-05 1/K	0.000759 ± 1.9e-05 1/K	0.000754 ± 1.8e-05 1/K	0.000752 ± 1.8e-05 1/K
